Patent US20040186072A1, “Use of esters of long-chain fatty acids for treatment of autoimmune diseases” (priority 2001, published 2004)

Tests used:
[1] = system: EAE induced by PLP 139-151 peptide in SJL/J mice; assay: EAE induced by PLP 139-151/CFA in SJL/J mice, clinical score 0-5; format: in vivo; conditions: for mean clinical score on day 22: Example 5: 100 μl s.c. daily from day 11, PBS control 2.5±0.84
[2] = system: EAE induced with mouse spinal cord homogenate (MSCH); assay: EAE induced by mouse spinal cord homogenate (MSCH)/CFA in SJL/J mice; format: in vivo; conditions: for clinical severity: 100 μl s.c. daily from day 4, all control mice had died by day 15, FIG. 6
[3] = stated as known; cited from earlier work
[4] = Example 2: 100 μl i.p. daily day 0-50, followed until day 70

CCCCCCCC/C=C\CCCCCCCC(=O)OCC [EOA, ethyl oleate]
mice that developed EAE (incidence) ([1]; Example 1: EOA 100 μl s.c. daily day 0-11, then days 13, 15, 17, 20, 23, 26, untreated control 5 out of 5): 2 out of the 5 | mean maximal severity (clinical score 0-5) ([1]; Example 1: EOA 100 μl s.c. from day 0, control 1.67±0.29): 0.5±0.32 | effect on clinical severity and incidence of EAE ([1]; Example 1: s.c. from day 0, FIG. 1): significantly reduced clinical severity and incidence of EAE | mean maximal clinical score (0-5) [1, 4]: 0.63±0.28 | mice that developed EAE (incidence) [1, 4]: 5 out of 8 | time mice remained stable after cessation of treatment ([1]; Example 2: i.p. daily day 0-50, treatment stopped day 50): 20 days | maximal mean score at which disease progression was arrested ([1]; Example 4: 100 μl i.p. daily from day 12 (clinical onset) to day 35, control 3.5±0.69): 0.83±0.53 | mean maximal clinical score, partially recovered subgroups (EOA-P, IFA-P) ([1]; Example 4: daily i.p. treatment reinstated from day 40 for 40 days, FIG. 4C, untreated control 3.1±0.7): 1.3±0.19 | therapeutic effect on ongoing EAE ([1]; Example 4: i.p. daily day 12-35, FIG. 4A): immediately arrested the worsening of the clinical symptoms of EAE | state on day 40 after withholding treatment ([1]; Example 4: i.p. daily day 12-35, then no treatment): remained stable with no evidence of disease exacerbation or development of relapses | time to complete reversal of clinical symptoms after treatment was initiated ([1]; Example 4: i.p. daily from day 12): 8 to 10 days | mean maximal clinical score on days 20-21 ([1]; Example 4: i.p. daily from day 12, control 3.5±0.69): 0.17±0.11 | effect of second course of treatment on clinical signs ([1]; Example 4: partially recovered subgroups, daily i.p. from day 40): no further ameliorating effect | mean clinical score on day 22 [1]: 0.83±0.40 | clinical severity [2]: markedly reduced clinical severity | toxicity when injected into humans [3]: non-toxic when injected into humans

mannide mono-oleate [MMO]
effect on disease development ([1]; Example 3: 100 μl i.p. daily from day 0, FIG. 3): completely abrogated disease development | mean maximal clinical score on day 40 ([1]; Example 3: i.p. daily day 0-25, 15 days after injections stopped, control 2.6±0.99): 0.17±0.11 | mean maximal clinical score on day 73 ([1]; Example 3: i.p. daily day 0-25, 48 days after injections stopped, control 3.2±0.75): 0.67±0.44 | mice in which very mild clinical signs appeared after treatment was discontinued ([1]; Example 3: i.p. daily day 0-25, from day 25 on): 3 out of the 6 | clinical signs on day 20 ([1]; Example 3: i.p. daily from day 0, all 6 treated mice, control score 3.4±0.69): free of any clinical sign of EAE | mean clinical score on day 22 [1]: 0.08±0.08 | disease development ([2]; 100 μl s.c. daily from day 4, FIG. 6): almost complete abrogation of disease development | clinical severity [2]: markedly reduced clinical severity | toxicity when injected into humans [3]: non-toxic when injected into humans
